Data on 11 compounds can be found in PMC5103216, “Novel Agonist Bioisosteres and Common Structure-Activity Relationships for The Orphan G Protein-Coupled Receptor GPR139” (Scientific Reports, 2016).

For orientation: pEC50 means the EC50 on a negative log10 scale, so that one unit is a factor of ten. In general, Emax refers to the maximal effect, on the per cent scale that the assay sets.

The target in data set [1] is T1, GPR139 (Homo sapiens, UniProt Q6DWJ6).
T1 sequence (Q6DWJ6 1-353): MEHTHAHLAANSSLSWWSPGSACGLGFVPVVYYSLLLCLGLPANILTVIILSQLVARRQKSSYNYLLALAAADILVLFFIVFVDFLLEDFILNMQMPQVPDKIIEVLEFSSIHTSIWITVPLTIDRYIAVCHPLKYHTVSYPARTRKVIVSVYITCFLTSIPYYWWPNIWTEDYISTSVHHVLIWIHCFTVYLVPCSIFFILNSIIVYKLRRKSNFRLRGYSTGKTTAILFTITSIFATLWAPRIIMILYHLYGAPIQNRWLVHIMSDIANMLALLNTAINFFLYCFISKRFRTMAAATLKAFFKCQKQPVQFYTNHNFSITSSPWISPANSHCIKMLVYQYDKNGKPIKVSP
The experiment in a line: IP-One HTRF assay measuring Gq activation in CHO-139. In kind it is cell-based. As to conditions: for pEC50: CHO-139, 20 mM LiCl; for agonist type: IP-One assay, compared to compound 1a. The procedure:
(§1) Figure 3 IP-One HTRF® assay measuring Gq activation. Concentration-response curves of 1a, 7c (racemic), L-Trp, L-Phe, DL43, DL126, DL24, DL22, DL132 and DL130 on (A) CHO-139 and (B) CHO-M1 in the IP-One assay (final conc of LiCl = 20 mM). The dotted line represent the [IP1] response from (A) 10 μM 1a and (B) 1 μM carbachol, which is an agonist for the muscarinic acethylcholine receptor M1 that activates the Gq coupled pathway. The graphs are means ± SEM based on three independent experiments performed in triplicates.
(§2) The IP-One assay was performed as described in the work by Thomsen et al.[28], with few modifications. Breifly, CHO-139 and CHO-M1 were detached and re-suspended to a concentration of 10 million cells/mL. 5 μL 2x concentrated compound (+40 mM LiCl) and 5 μL cell suspension (50,000 cells/well) was mixed. The plate was sealed and incubated at 37 °C for 1 hour. Next, 10 μL detection reagents (lysis buffer containing 2.5% Eu^3+-anti-IP1 antibody and 2.5% IP1-d2) was added and the plate was incubated for 1 hour at room temperature. The plate was read on an Envision (PerkinElmer, Waltham, MA, USA). The time resolved-fluorescence resonance energy transfer (TR-FRET) 665 nm/615 nm ratio, which is inversely proportional to the inositol monophosphate (IP1) accumulation, was used to determine the concentration of the IP1 response.
Background: TR-FRET usually uses a lanthanide donor and a delayed reading to cut background.

For data set [2] the following is noted: in vivo; cited from earlier work.
In data set [3] the target is T2, M1 receptor (Homo sapiens, UniProt P11229).
T2 construct: host or cells: CHO-k1
T2 sequence (P11229 1-460): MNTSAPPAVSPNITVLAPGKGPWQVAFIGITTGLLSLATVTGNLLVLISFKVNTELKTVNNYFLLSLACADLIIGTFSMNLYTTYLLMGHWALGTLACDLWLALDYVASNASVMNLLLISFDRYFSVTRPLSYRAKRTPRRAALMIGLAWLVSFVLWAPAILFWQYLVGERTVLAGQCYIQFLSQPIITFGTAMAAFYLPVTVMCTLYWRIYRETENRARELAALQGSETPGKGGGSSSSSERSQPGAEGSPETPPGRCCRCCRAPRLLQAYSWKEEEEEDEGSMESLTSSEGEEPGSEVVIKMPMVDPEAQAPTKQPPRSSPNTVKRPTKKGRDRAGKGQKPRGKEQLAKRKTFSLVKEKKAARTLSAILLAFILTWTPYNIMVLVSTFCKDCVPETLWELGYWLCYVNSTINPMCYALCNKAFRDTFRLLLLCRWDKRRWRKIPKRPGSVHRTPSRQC
Nature of the data set: IP-One HTRF assay in CHO-M1 (control). In kind it is cell-based. As to the method: as §1, §2

Data set [4] addresses T1, GPR139. Nature of the data set: cAMP dynamic 2 assay measuring Gi activation (forskolin) in CHO-139. In kind it is cell-based. The settings on record: for Inhibition of the cAMP response induced by 5 μM forskolin (Gi), in words: CHO-139. The procedure:
(§3) The cAMP assay was performed as described in the work by Thomsen et al.[28] with few modifications. Breifly, CHO-139 and CHO-M1 was detached and resuspended to a concentration of 1 million cells/mL. 5 μL 2x concentrated compound (for Gs: +100 μM IBMX and for Gi: +100 μM IBMX +10 μM forskolin (Fsk)) and 5 μL cell suspension (5,000 cells/well) was mixed. The plate was sealed and incubated at room temperature for 30 min. Next, 10 μL detection reagents (lysis buffer containing 2.5% Eu^3+-anti-cAMP antibody and 2.5% cAMP-d2) was added and the plate was incubated for 1 hour at room temperature. The plate was read on an Envision (PerkinElmer, Waltham, MA, USA). The TR-FRET 665 nm/615 nm ratio, which is inversely proportional with the cAMP production, was used to determination the concentration of the cAMP response. […]
(§4) Supplementary Figure 2. cAMP dynamic 2 assay measuring Gi activation. 5,000 cells/well of CHO-139 (pink bars) or CHO-M1 (blue bars) cells are
(§5) incubated with the indicated compounds for 30 min at room temperature in the presence of 50 µM IBMX and 5 uM Fsk (expect “buffer (-Fsk) where only 50
(§6) µM IBMX is present). The straight line indicate the level of cAMP upon activation with 5 uM Fsk, and the grey area ±10% of the response. The responses are
(§7) one representative out of at two independent experiments performed in triplicates. Data points are means ± SD.

Data set [5] has as its target T2, M1 receptor. Nature of the data set: cAMP dynamic 2 assay measuring Gs activation in CHO-M1 (control). In kind it is cell-based. The procedure:
as §3
(§8) Supplementary Figure 1. cAMP dynamic 2 assay measuring Gs activation. 5,000 cells/well of CHO-139 (pink bars) or CHO-M1 (blue bars) cells are
(§9) incubated with the indicated compounds for 30 min at room temperature in the presence of 50 µM IBMX. 5 µM and 10 µM forskolin (Fsk) serves as positive
(§10) controls. The responses are one representative out of at two independent experiments performed in triplicates. Data points are means ± SD. […]
(§11) Data points are means ± SD.

Data set [6] deals with T1, GPR139. Also on record: method as in ref 13, 14 (Dvorak et al.). The settings on record: relative to L-Trp; 14 (Dvorak et al.); cited from earlier work.
For data set [7] the following is noted: not told; cited from earlier work.
In data set [8] the target is T1, GPR139. The experiment in a line: cAMP dynamic 2 assay measuring Gs activation in CHO-139. In kind it is cell-based. As to the method: as §3, §8, §9, §10, §11
Data set [9] addresses T1, GPR139. Also on record: method as in ref 11 (Shi et al.). As to conditions: ref 11 (Shi et al.), cited from earlier work; for pEC50: GPR139 agonist potency.
The target of data set [10] is T1, GPR139. Nature of the data set: GPR139 agonist potency, data from Shi et al. (Lundbeck series). In kind it is cell-based.
For data set [11] the following is noted: in vivo; cited from earlier work. This is another data set of the same source.
Data set [12] concerns the target T1, GPR139. Nature of the data set: GPR139 agonist potency, data from Dvorak et al. (Janssen R&D series). In kind it is cell-based.
Data set [13] deals with T1, GPR139. Also noted: method as in ref 6, 13 (Liu et al.). The settings on record: concentration-dependent calcium response in HEK293 cells; 13 (Liu et al.); cited from earlier work.
For data set [14], the target named is T1, GPR139. Also on record: method as in ref 6, 13 (Liu et al.). As to conditions: calcium mobilization in HEK293; 13 (Liu et al.); cited from earlier work. A general note: Calcium flux is commonly read through the fluorescence of an indicator in the cells.
The target of data set [15] is T1, GPR139. Also on record: method as in PMID 24826842. The settings on record: GPR139 activation; cited from earlier work.
Data set [16] addresses T1, GPR139. Also noted: method as in ref 6, 13 (Liu et al.). The settings on record: [35S]GTPγS binding, membranes from COS7 cells; 13 (Liu et al.); cited from earlier work. In general terms: Binding of GTPγS marks nucleotide exchange on a G protein.
Data set [17] addresses T2, M1 receptor. Nature of the data set: cAMP dynamic 2 assay measuring Gi activation (forskolin) in CHO-M1 (control). In kind it is cell-based. The settings on record: CHO-M1, high concentrations; unspecific response. The procedure:
as §3, §4, §5, §6, §7

Data set [18] concerns the target T1, GPR139. Also on record: method as in ref 15 (Hitchcock et al.). As to conditions: ref 15 (Hitchcock et al.); cited from earlier work.

pEC50: −log10 of the molar value. Values joined by “and” are separate entries in the source; they are usually repeats but may differ in a detail not shown here. Identical values can stand only once. Like-named read-outs stand apart in the source and are kept apart here.

In the case of `CC(NC(=O)CNC(=O)c1cccc(Cl)c1)c1ccccc1` (racemic) [7c (racemic)], on GPR139 [1] (IP-One HTRF assay), the negative logarithm of the EC50 (pEC50) was 6.31. Moreover, at GPR139 [1] (IP-One HTRF assay, relative to compound 1a, 7c at 10 μM and L-Trp at 20 mM (highest concentration tested)), the Emax was 120^(*) %. Further, at GPR139 [1], the agonist type entry is “super-agonists”.

`C[C@H](NC(=O)CNC(=O)c1cccc(Cl)c1)c1ccccc1` (racemic) [7c]: the “brain to plasma ratio” value in data set [2] is 1.2. The “IP1 response in CHO-M1 cells” value at M1 receptor [3] is given as “no response is seen in CHO-M1 cells”. In addition, on GPR139 [4], the “Inhibition of the cAMP response induced by 5 μM forskolin (Gi), in words” value (shortened to “Inhibition of the cAMP response induced”) is “none of the tested compounds were able to inhibit the cAMP response”. The “Gs response (cAMP)” value on M1 receptor [5] and on GPR139 [8] was “None of the tested compounds induced Gs response” throughout. In addition, the maximal effect (Emax) on GPR139 [6] was 138%. Besides, in data set [7], the efflux potential entry is “no efflux potential”.

On to `COc1cc(OC)cc(C(=O)NNC(=O)Nc2cccc3ccccc23)c1` [1a], for which the “IP1 response in CHO-M1 cells” value on M1 receptor [3] is reported as “no response is seen in CHO-M1 cells”. For the same compound, the “Inhibition of the cAMP response induced” value at GPR139 [4] was “none of the tested compounds were able to inhibit the cAMP response”. Also, the “Gs response (cAMP)” value on M1 receptor [5] and at GPR139 [8] was “None of the tested compounds induced Gs response” throughout. The pEC50 on GPR139 [1] (IP-One HTRF assay) is 5.98. On GPR139 [9], the Emax was 100%.

Take `COc1ccccc1C(=O)NNC(=O)Nc1cccc2ccccc12` [1c]: the “fold reduction of potency vs. 1a” value on GPR139 [10] is given as ~ 16 fold. In addition, at GPR139 [9], the pEC50 is 6.21 and the Emax is 79%.

In the case of `COc1cccc(C(=O)NNC(=O)Nc2cccc3ccccc23)c1` [1f], on GPR139 [10], the “fold reduction of potency vs. 1a” value is listed as ~ 26 fold. For the same compound, on GPR139 [9], the pEC50 was 6.00 and the Emax was 100%.

With `COc1cc(OC)cc(C(=O)NNC(=O)Cc2cccc3ccccc23)c1` [1s], the “fold reduction of potency vs. 1a” value at GPR139 [10] was 2 fold and ~ 2.4 fold. The brain exposure entry in data set [11] is given as “failed to increase brain exposure due to low plasma levels”. Besides, on GPR139 [9], the pEC50 is 7.06 and the Emax is listed as 95%.

Regarding `C[C@H](NC(=O)CNC(=O)c1ccccc1Cl)c1ccccc1` [7b], the “fold reduction of potency vs. 7c” value at GPR139 [12] is ~ 3 fold. For the same compound, at GPR139 [6], the Emax is 120%.

On to `N[C@@H](Cc1ccccc1)C(=O)O` [L-Phe, L-Phenylalanine], for which the pEC50 was 4.22 on GPR139 [13]; 3.39 at GPR139 [14]; 3.49 on GPR139 [15]; 4.51 at GPR139 [16]; 2.35 at GPR139 [1] (IP-One HTRF assay). In addition, the “IP1 response in CHO-M1 cells” value at M1 receptor [3] was “no response is seen in CHO-M1 cells”. For the same compound, the “Inhibition of the cAMP response induced” value on GPR139 [4] was “none of the tested compounds were able to inhibit the cAMP response”. In addition, the “Gs response (cAMP)” value at M1 receptor [5] and on GPR139 [8] was “None of the tested compounds induced Gs response” throughout.

`N[C@@H](Cc1c[nH]c2ccccc12)C(=O)O` [L-Trp, L-Tryptophan]: the pEC50 is 4.31 at GPR139 [13]; 3.54 at GPR139 [14]; 3.66 on GPR139 [15]; 4.59 on GPR139 [16]; around 2.07 at GPR139 [1] (IP-One HTRF assay). Further, the “IP1 response in CHO-M1 cells” value on M1 receptor [3] is listed as “no response is seen in CHO-M1 cells”. Besides, the “Inhibition of the 5 μM forskolin induced cAMP response” value on GPR139 [4] (CHO-139, high concentrations) is on record as “more than 10%”; on M1 receptor [17], “more than 10%”. Besides, the “Gs response (cAMP)” value at M1 receptor [5] and at GPR139 [8] was “None of the tested compounds induced Gs response” throughout. At GPR139 [1], the agonist type result is “super-agonists”.

On to `COc1ccc(C(C)NC(=O)Cn2nnc3cc(C)ccc3c2=O)cc1` (centres unmarked) [compound 35], for which the pEC50 at GPR139 [18] was 7.38.

As for `COc1ccc(C(C)NC(=O)Cn2nnc3cc(OC)ccc3c2=O)cc1` (centres unmarked) [compound 37], on GPR139 [18], the pEC50 was 7.43.
